Data reported in ChEMBL document CHEMBL1146948, “Synthesis and biological activity of diaryl ether inhibitors of malarial enoyl acyl carrier protein reductase. Part 2: 2'-substituted triclosan derivatives” (Bioorg Med Chem Lett, 2006).

Assays:
[1] = biological target: T1, Enoyl-acyl-carrier protein reductase (Plasmodium falciparum, UniProt Q965D5); assay: Inhibition of Plasmodium falciparum ENR enzymatic activity
T1 sequence (Q965D5 whole entry): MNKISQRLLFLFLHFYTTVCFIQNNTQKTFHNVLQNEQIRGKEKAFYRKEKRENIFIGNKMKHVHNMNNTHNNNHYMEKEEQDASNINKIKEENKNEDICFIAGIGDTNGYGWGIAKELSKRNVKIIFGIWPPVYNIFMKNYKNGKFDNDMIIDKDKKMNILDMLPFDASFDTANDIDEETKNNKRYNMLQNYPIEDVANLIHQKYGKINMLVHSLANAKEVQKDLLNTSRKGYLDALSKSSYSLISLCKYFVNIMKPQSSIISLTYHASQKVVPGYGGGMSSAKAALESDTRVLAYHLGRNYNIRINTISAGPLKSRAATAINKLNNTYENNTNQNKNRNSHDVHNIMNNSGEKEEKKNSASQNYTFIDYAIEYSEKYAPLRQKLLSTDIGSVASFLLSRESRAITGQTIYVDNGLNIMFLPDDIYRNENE

Plasmodium falciparum [2] = assay: Antimalarial activity against Plasmodium falciparum Dd2; type: functional, organism-based
Plasmodium falciparum [3] = assay: Antimalarial activity against Plasmodium falciparum 3D7; type: functional, organism-based

| Structure (SMILES) | IC50 [1] [µM] | EC50 (Plasmodium falciparum [2]) [µM] | EC50 (Plasmodium falciparum [3]) [µM] |
| --- | --- | --- | --- |
| Oc1cc(Cl)ccc1Oc1ccc(Cl)cc1CN1CCCCC1 | > 50 | 0.48 | 0.73 |
| COc1cc(Cl)ccc1Oc1ccccc1CNCc1ccc(Cl)cc1 | > 50 | 24 | 19 |
| Oc1cc(Cl)ccc1Oc1ccccc1CNc1ccc2ccccc2c1 | 46 | 0.33 | 0.45 |
| Oc1cc(Cl)ccc1Oc1ccc(Cl)cc1CNCc1ccc(Cl)cc1 | 7.2 | 0.27 | 0.32 |
| Oc1cc(Cl)ccc1Oc1ccc(Cl)cc1CNc1ccc2ccccc2c1 | 26 | 0.14 | 0.21 |
| Oc1cc(Cl)ccc1Oc1ccccc1CNCc1ccccc1 | 10 | 0.42 | 0.49 |
| Oc1cc(Cl)ccc1Oc1ccccc1CNc1cccc2ccccc12 | 11 | 0.37 | 0.3 |
| CN(Cc1ccc(Cl)cc1)Cc1cc(Cl)ccc1Oc1ccc(Cl)cc1O | 22 | 0.19 | 0.25 |
| Oc1cc(Cl)ccc1Oc1ccc(Cl)cc1CNCc1ccc(-c2ccccc2)cc1 | 35 | 0.15 | 0.23 |
| Oc1cc(Cl)ccc1Oc1ccccc1CNCc1ccc(Cl)cc1 | 35 | 0.3 | 0.33 |
| Oc1cc(Cl)ccc1Oc1ccc(Cl)cc1CN1CCN(c2ccccc2)CC1 | 6.1 | 15 | 14 |
| NCc1ccccc1Oc1ccc(Cl)cc1O | > 50 | 7.2 | 9.7 |
| Oc1cc(Cl)ccc1Oc1ccccc1CNCCc1ccccc1 | 2.5 | 0.75 | 0.78 |
| O=S(=O)(NCc1cc(Cl)ccc1Oc1ccc(Cl)cc1O)c1ccccc1 | 15 | 17 | 11 |
| CC(=O)N(Cc1ccc(Cl)cc1)Cc1cc(Cl)ccc1Oc1ccc(Cl)cc1O | 28 | 5.9 | 3.5 |
| Oc1cc(Cl)ccc1Oc1ccc(Cl)cc1CN1CCN(Cc2ccccc2)CC1 | 11 | 0.62 | 0.63 |
| Oc1cc(Cl)ccc1Oc1ccc(Cl)cc1CNc1cccc2ccccc12 | > 50 | 2.2 | 2.6 |
| NCc1cc(Cl)ccc1Oc1ccc(Cl)cc1O | > 50 | 2 | 2.7 |
| Oc1cc(Cl)ccc1Oc1ccccc1CNCCCc1ccccc1 | 19 | 0.39 | 0.32 |

More lines, now with the values ahead:

| IC50 [1] [µM] | EC50 (Plasmodium falciparum [2]) [µM] | EC50 (Plasmodium falciparum [3]) [µM] | Structure (SMILES) |
| --- | --- | --- | --- |
| 27 | 0.38 | 0.14 | CN(Cc1ccc(Cl)cc1)C(C)(C)c1cc(Cl)ccc1Oc1ccc(Cl)cc1O |
| > 50 | 1.4 | 2.1 | Oc1cc(Cl)ccc1Oc1ccc(Cl)cc1CN1CCN(C(c2ccccc2)c2ccccc2)CC1 |
| 7 | 140 | 83 | Nc1ccccc1Oc1ccc(Cl)cc1O |
| 3.3 | 0.83 | 0.77 | Oc1cc(Cl)ccc1Oc1ccc(Cl)cc1CNCc1ccccc1 |
| 9 | 0.11 | 0.18 | Oc1cc(Cl)ccc1Oc1ccc(Cl)cc1CNCc1ccc2c(c1)CCO2 |
| 19 | 0.22 | 0.18 | CN(C)Cc1cc(Cl)ccc1Oc1ccc(Cl)cc1O |
| 27 | 0.47 | 0.58 | CNCc1cc(Cl)ccc1Oc1ccc(Cl)cc1O |
| 7.2 | 0.35 | 0.41 | CC(C)(NCc1ccc(Cl)cc1)c1cc(Cl)ccc1Oc1ccc(Cl)cc1O |
| 18 | 12 | 8.6 | O=C(NCc1cc(Cl)ccc1Oc1ccc(Cl)cc1O)c1ccccc1 |
| > 50 | 0.45 | 0.5 | Oc1cc(Cl)ccc1Oc1ccc(Cl)cc1CN1CCCC1 |
